Results taken from patent US20150105252A1, “SUBSTITUTED PYRAZOLES AS HERBICIDES” (E I DU PONT DE NEMOURS AND COMPANY, priority 2013, published 2015).

Columns and labels:
barnyardgrass [1] = experiment: Test A preemergence; type: in vivo, Echinochloa crus-galli; details: Preemergence, 1000 g ai/ha; 0 to 100 scale, 0 no effect, 100 complete control
In short: (§1)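 Greenhouse test in loam soil/sand blend; compounds formulated in non-phytotoxic solvent with surfactant, applied as preemergence directed soil spray or postemergence to plants 2–10 cm tall at one- to two-leaf stage. Injury rated visually versus untreated controls after approximately 10 days on a 0 (no effect) to 100 (complete control) scale.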

crabgrass, large [2] = experiment: Test A preemergence; type: in vivo, Digitaria sanguinalis; details: Preemergence, 1000 g ai/ha; 0 to 100 scale, 0 no effect, 100 complete control
Description: (§2) Seeds of plant species selected from barnyardgrass (Echinochloa crus-galli), kochia (Kochia scoparia), common ragweed (Ambrosia elation), Italian ryegrass (Lolium multiflorum), crabgrass, large (large crabgrass, Digitaria sanguinalis), foxtail, giant (giant foxtail, Setaria faberii), morningglory (Ipomoea spp.), pigweed (redroot pigweed, Amaranthus retroflexus), velvetleaf (Abutilon theophrasti), wheat (Triticum aestivum), and corn (Zea mays) were planted into a blend of loam soil and sand and treated preemergence with a directed soil spray using test chemicals formulated in a non-phytotoxic solvent mixture which included a surfactant.
(§3) At the same time, plants selected from these crop and weed species and also blackgrass (Alopecurus myosuroides), and galium (catchweed bedstraw, Galium aparine) were planted in pots containing the same blend of loam soil and sand and treated with postemergence applications of test chemicals formulated in the same manner. Plants ranged in height from 2 to 10 cm and were in the one- to two-leaf stage for the postemergence treatment. Treated plants and untreated controls were maintained in a greenhouse for approximately 10 days, after which time all treated plants were compared to untreated controls and visually evaluated for injury. Plant response ratings, summarized in Table A, are based on a 0 to 100 scale where 0 is no effect and 100 is complete control. A dash (-) response means no test result.

foxtail, giant [3] = experiment: Test A preemergence; type: in vivo, Setaria faberii; details: Preemergence, 1000 g ai/ha; 0 to 100 scale, 0 no effect, 100 complete control
Description: as §2, §3

morningglory [4] = experiment: Test A preemergence; type: in vivo, Ipomoea spp.; details: Preemergence, 1000 g ai/ha; 0 to 100 scale, 0 no effect, 100 complete control
In short: as §1

pigweed [5] = experiment: Test A preemergence; type: in vivo, Amaranthus retroflexus; details: Preemergence, 1000 g ai/ha; 0 to 100 scale, 0 no effect, 100 complete control
Description: as §2, §3

velvetleaf [6] = experiment: Test A preemergence; type: in vivo, Abutilon theophrasti; details: Preemergence, 1000 g ai/ha; 0 to 100 scale, 0 no effect, 100 complete control
In short: as §1

wheat [7] = experiment: Test A preemergence; type: in vivo, Triticum aestivum; details: Preemergence, 1000 g ai/ha; 0 to 100 scale, 0 no effect, 100 complete control
In short: as §1

corn [8] = experiment: Test A preemergence; type: in vivo, Zea mays; details: Preemergence, 1000 g ai/ha; 0 to 100 scale, 0 no effect, 100 complete control
Description: as §2, §3

barnyardgrass [9] = experiment: Test A postemergence; type: in vivo, Echinochloa crus-galli; details: Postemergence, 1000 g ai/ha; visual rating after approx. 10 days, 0 to 100 scale (0 no effect, 100 complete control)
In short: as §1

crabgrass, large [10] = experiment: Test A postemergence; type: in vivo, Digitaria sanguinalis; details: Postemergence, 1000 g ai/ha; visual rating after approx. 10 days, 0 to 100 scale (0 no effect, 100 complete control)
In short: as §1

foxtail, giant [11] = experiment: Test A postemergence; type: in vivo, Setaria faberii; details: Postemergence, 1000 g ai/ha; visual rating after approx. 10 days, 0 to 100 scale (0 no effect, 100 complete control)
In short: as §1

morningglory [12] = experiment: Test A postemergence; type: in vivo, Ipomoea spp.; details: Postemergence, 1000 g ai/ha; visual rating after approx. 10 days, 0 to 100 scale (0 no effect, 100 complete control)
Description: as §2, §3

pigweed [13] = experiment: Test A postemergence; type: in vivo, Amaranthus retroflexus; details: Postemergence, 1000 g ai/ha; visual rating after approx. 10 days, 0 to 100 scale (0 no effect, 100 complete control)
In short: as §1

velvetleaf [14] = experiment: Test A postemergence; type: in vivo, Abutilon theophrasti; details: Postemergence, 1000 g ai/ha; visual rating after approx. 10 days, 0 to 100 scale (0 no effect, 100 complete control)
In short: as §1

wheat [15] = experiment: Test A postemergence; type: in vivo, Triticum aestivum; details: Postemergence, 1000 g ai/ha; visual rating after approx. 10 days, 0 to 100 scale (0 no effect, 100 complete control)
In short: as §1

corn [16] = experiment: Test A postemergence; type: in vivo, Zea mays; details: Postemergence, 1000 g ai/ha; visual rating after approx. 10 days, 0 to 100 scale (0 no effect, 100 complete control)
Description: as §2, §3

Structure (SMILES): CCc1cc(C(=O)NC2CC2)nn1Cc1cccc(OC(F)(F)F)c1 [Compound 26]
- Barnyardgrass plant response rating (barnyardgrass [1]): 80
- Crabgrass, Large plant response rating (crabgrass, large [2]): 100
- Foxtail, Giant plant response rating (foxtail, giant [3]): 100
- Morningglory plant response rating (morningglory [4]): 90
- Pigweed plant response rating (pigweed [5]): 100
- Velvetleaf plant response rating (velvetleaf [6]): 100
- Wheat plant response rating (wheat [7]): 40
- Corn plant response rating (corn [8]): 40
- Barnyardgrass plant response rating (barnyardgrass [9]): 70
- Crabgrass, Large plant response rating (crabgrass, large [10]): 90
- Foxtail, Giant plant response rating (foxtail, giant [11]): 100
- Morningglory plant response rating (morningglory [12]): 100
- Pigweed plant response rating (pigweed [13]): 100
- Velvetleaf plant response rating (velvetleaf [14]): 100
- Wheat plant response rating (wheat [15]): 50
- Corn plant response rating (corn [16]): 70

Structure (SMILES): O=C(NCC(F)(F)F)c1cc(C2CC2)n(Cc2cccc(OC(F)(F)F)c2)n1 [Compound 36]
- Barnyardgrass plant response rating (barnyardgrass [1]): 0
- Crabgrass, Large plant response rating (crabgrass, large [2]): 20
- Foxtail, Giant plant response rating (foxtail, giant [3]): 20
- Morningglory plant response rating (morningglory [4]): 0
- Pigweed plant response rating (pigweed [5]): 30
- Velvetleaf plant response rating (velvetleaf [6]): 0
- Wheat plant response rating (wheat [7]): 0
- Corn plant response rating (corn [8]): 0
- Barnyardgrass plant response rating (barnyardgrass [9]): 20
- Crabgrass, Large plant response rating (crabgrass, large [10]): 30
- Foxtail, Giant plant response rating (foxtail, giant [11]): 30
- Morningglory plant response rating (morningglory [12]): 90
- Pigweed plant response rating (pigweed [13]): 90
- Velvetleaf plant response rating (velvetleaf [14]): 60
- Wheat plant response rating (wheat [15]): 0
- Corn plant response rating (corn [16]): 20

Structure (SMILES): O=C(NC1CC1)c1cc(C2CC2)n(Cc2cccc(OC(F)(F)F)c2)n1 [Compound 37]
- Barnyardgrass plant response rating (barnyardgrass [1]): 0
- Crabgrass, Large plant response rating (crabgrass, large [2]): 40
- Foxtail, Giant plant response rating (foxtail, giant [3]): 30
- Morningglory plant response rating (morningglory [4]): 0
- Pigweed plant response rating (pigweed [5]): 20
- Velvetleaf plant response rating (velvetleaf [6]): 0
- Wheat plant response rating (wheat [7]): 0
- Corn plant response rating (corn [8]): 0
- Barnyardgrass plant response rating (barnyardgrass [9]): 10
- Crabgrass, Large plant response rating (crabgrass, large [10]): 20
- Foxtail, Giant plant response rating (foxtail, giant [11]): 10
- Morningglory plant response rating (morningglory [12]): 80
- Pigweed plant response rating (pigweed [13]): 100
- Velvetleaf plant response rating (velvetleaf [14]): 70
- Wheat plant response rating (wheat [15]): 20
- Corn plant response rating (corn [16]): 30

Structure (SMILES): CCCNC(=O)c1cc(C2CC2)n(Cc2cccc(OC(F)(F)F)c2)n1 [Compound 38]
- Barnyardgrass plant response rating (barnyardgrass [1]): 0
- Crabgrass, Large plant response rating (crabgrass, large [2]): 20
- Foxtail, Giant plant response rating (foxtail, giant [3]): 0
- Morningglory plant response rating (morningglory [4]): 0
- Pigweed plant response rating (pigweed [5]): 0
- Velvetleaf plant response rating (velvetleaf [6]): 0
- Wheat plant response rating (wheat [7]): 0
- Corn plant response rating (corn [8]): 0
- Barnyardgrass plant response rating (barnyardgrass [9]): 10
- Crabgrass, Large plant response rating (crabgrass, large [10]): 10
- Foxtail, Giant plant response rating (foxtail, giant [11]): 10
- Morningglory plant response rating (morningglory [12]): 100
- Pigweed plant response rating (pigweed [13]): 40
- Velvetleaf plant response rating (velvetleaf [14]): 50
- Wheat plant response rating (wheat [15]): 0
- Corn plant response rating (corn [16]): 30

Structure (SMILES): CCNC(=O)c1cc(C2CC2)n(Cc2cccc(OC(F)(F)F)c2)n1 [Compound 39]
- Barnyardgrass plant response rating (barnyardgrass [1]): 0
- Crabgrass, Large plant response rating (crabgrass, large [2]): 10
- Foxtail, Giant plant response rating (foxtail, giant [3]): 0
- Morningglory plant response rating (morningglory [4]): 0
- Pigweed plant response rating (pigweed [5]): 0
- Velvetleaf plant response rating (velvetleaf [6]): 0
- Wheat plant response rating (wheat [7]): 0
- Corn plant response rating (corn [8]): 0
- Barnyardgrass plant response rating (barnyardgrass [9]): 10
- Crabgrass, Large plant response rating (crabgrass, large [10]): 10
- Foxtail, Giant plant response rating (foxtail, giant [11]): 10
- Morningglory plant response rating (morningglory [12]): 60
- Pigweed plant response rating (pigweed [13]): 40
- Velvetleaf plant response rating (velvetleaf [14]): 10
- Wheat plant response rating (wheat [15]): 0
- Corn plant response rating (corn [16]): 10
